Data published in patent publication US10426773B2, “Systems pharmacology for treating ocular disorders” (Case Western Reserve Univeristy, priority 2011, dated 2019).
Counter-ions that a name gives are not always drawn.

Experiments:
[1] = target: T1, Dopamine D4 receptor (D4R) (Homo sapiens, UniProt P21917); assay: BRET assay for G protein activation in live cells, D4R-Go; assay type: cell-based; conditions: for agonistic activity on D4R (BRET signal): HEK293T/17 cells, BRM 25 μM, MTP 100 μM, DOX 50 μM, TAM 100 μM
T1 construct: host or cells: HEK293T/17
T1 sequence (P21917 1-419): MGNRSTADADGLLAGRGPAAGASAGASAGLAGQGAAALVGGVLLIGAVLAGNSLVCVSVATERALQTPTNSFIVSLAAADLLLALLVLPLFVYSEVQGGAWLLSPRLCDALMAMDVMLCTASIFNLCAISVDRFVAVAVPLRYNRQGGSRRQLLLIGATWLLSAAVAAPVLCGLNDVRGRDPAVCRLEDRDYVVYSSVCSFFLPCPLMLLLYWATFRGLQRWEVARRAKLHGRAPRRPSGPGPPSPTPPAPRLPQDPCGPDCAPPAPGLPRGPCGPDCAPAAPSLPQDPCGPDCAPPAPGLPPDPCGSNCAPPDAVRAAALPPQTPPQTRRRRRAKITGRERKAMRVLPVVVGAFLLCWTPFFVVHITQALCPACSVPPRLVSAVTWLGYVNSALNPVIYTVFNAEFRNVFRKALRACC
Source text: FIGS. 35(A-C) illustrate characterizing the activity of BRM, MTP, DOX, and TAM on dopamine and adrenaline receptors (A) Schematic representation of the BRET assay used to evaluate actions of drugs on selected GPCRs. […] The free Venus-Gβγ then interacts with the Gβγ-effector mimetic masGRK3ct-Nluc to produce the BRET signal. GDP, guanosine diphosphate; GRK, G protein-coupled receptor kinase; Nluc, nanoluciferase. (B) Left: Representative BRET signal traces recorded upon activation of D4R with indicated drugs in cells expressing Gαo and Venus-Gβγ, illustrating the agonism assay. Right: Representative traces of D2R responses to 1 μM dopamine in the absence (control) or presence of indicated drugs, illustrating antagonism assay. Note that, in the antagonism assay shown, the black trace overlaps with the red trace and therefore is not visible. (C) Top: Quantification of agonistic activity of ligands on D2R, D4R, D1R, and ADRA1A. D2R-GO, D4R-GO, D1R-Gs, and ADRA1A-Gq signaling were reconstituted in HEK293T/17 cells by transient transfection separately. Maximum amplitudes induced by dopamine (DA; 100 μM), noradrenaline (NA; 100 μM), BRM (25 μM), MTP (100 μM), DOX (50 μM), and TAM (100 μM) were plotted as bar graphs. […] The activity is plotted as percent inhibition. Data are means±SD. Results are representative of two independent experiments each performed with 12 replicates.
Dopamine D1, dopamine D4, and α1A-adrenergic receptors were purchased from cDNA Resource Center (Bloomsburg University, Bloomsburg, Pa.). Plasmid encoding the Flag-tagged, long isoform of the D2 dopamine receptor was a gift from A. Kovoor (University of Rhode Island). pCMV5 plasmids encoding GαoA were gifts from H. Itoh (Nara Institute of Science and Technology, Japan). Plasmids encoding Venus 156-239-Gβ1 and Venus 1-155-Gγ2 were gifts from N. Lambert (Georgia Regents University). Plasmids encoding RGS9-2, Gβ5S, R7BP, and masGRK3ct-Nluc were previously described.
BRET experiments were performed as previously reported with slight modifications. […] BRET measurements were performed using a microplate reader (POLARstar Omega, BMG Labtech) equipped with two emission photomultiplier tubes. […] The BRET signal is determined by calculating the ratio of the light emitted by Gβ1γ2-Venus (535 nm) over the light emitted by masGRK3ct-Nluc (475 nm). The average baseline value recorded before agonist stimulation was subtracted from BRET signal values, and the resulting difference (ABRET ratio) was obtained.
We used a real-time kinetic assay in which G protein activation by GPCRs is quantified by monitoring changes in the bioluminescence resonance energy transfer (BRET) signal between Venus-tagged Gβγ and its luciferase-tagged reporter in living cells (FIG. 35A). […]

[2] = system: Abca4−/−Rdh8−/− mice; assay: Bright light-induced retinal degeneration in Abca4−/−Rdh8−/− mice, SLO autofluorescence imaging; assay type: in vivo, mouse; conditions: pretreatment before light 10,000 lux 30 min; SLO 8-9 days after light exposure
[3] = system: Abca4−/−Rdh8−/− mice; assay: Bright light-induced retinal degeneration in Abca4−/−Rdh8−/− mice, retinal histology and immunohistochemistry; assay type: in vivo, mouse; conditions: pretreatment before light 10,000 lux 30 min; 7-10 days after light exposure
How it was run: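 Eye cups fixed in 4% paraformaldehyde (with 2% glutaraldehyde for Epon, 1 μm toluidine blue sections) or cryosectioned at 12 μm for IHC of rhodopsin, PNA and DAPI; paraffin 5 μm sections H&E-stained for gross histology, examined by light microscopy.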

Structure (SMILES) | agonistic activity on D4R (BRET signal) [1] | retinal autofluorescence spots by SLO imaging [2] | retinal histology / immunohistochemistry (rhodopsin, PNA, DAPI; ONL) [3] | antagonistic activity on D4R (inhibition of BRET signal) ([1]; preincubation with ligand, then 1 μM dopamine)
COc1cc2nc(N3CCN(C(=O)C4COc5ccccc5O4)CC3)nc(N)c2cc1OC.CS(=O)(=O)O (stereo not shown) [Doxazosin] | partial agonistic effect | significantly protected retinas from developing light-induced damage | substantially preserved photoreceptor morphology | –
COCCc1ccc(OCC(O)CNC(C)C)cc1 (stereo not shown) [MTP, metoprolol tartrate] | no agonistic or antagonistic effects | lacked these autofluorescent spots | preservation of the ONL and photoreceptor cells | no agonistic or antagonistic effects
CCOc1ccccc1OCCN[C@H](C)Cc1ccc(OC)c(S(N)(=O)=O)c1.Cl [Tamsulosin] | partial agonistic effect | significantly protected retinas from developing light-induced damage | substantially preserved photoreceptor morphology | –
